Laboratory results: EP0753308A2, “Use of lactoferrin for therapy of acute or recurrent infectious diseases by streptococcus pyogenes or other intracellular gram positive pathogen bacteria” (priority 1995, dated 1997)

How the values were obtained:
S. pyogenes 95/1 = assay: Invasion assay in HeLa cell monolayers (gentamicin protection, CFU of viable intracellular bacteria); type: cell-based, Streptococcus pyogenes; conditions: control 5 x 10^5; for Internalized bacteria (CFU/ml): absence of lactoferrin
Method: (§1) Streptococcus pyogenes strain 95/1 was cultured in Todd-Hewitt broth (Difco lab.). Blood agar was used for counting coloning forming units (C.F.U.). Staphylococcus aureus strain 94/3 was cultured in Brain Hearth Infusion (BHI). Mannitol Salt Agar was used for C.F.U. counts. HeLa S3 human epitelial cells (derived from epithelioid carcinoma of human cervix) were grown as monolayers at 37°C in Eagle's MEM containing 1.2 g/l of NaCo3, 2 mM glutamine, 100 U/ml penicillin, 0.1 mg/ml streptomycin and 10% heat inactivated foetal calf serum in 5% CO2 on 24-well tissue culture clusters (costar) by loading 1 ml of a solution of 1.5x10^5 cells/ml.
(§2) Semiconfluent monolayers of HeLa cells were infected with a bacterial suspension (at a multiplicity of infection of 100 exponentially grown bacteria per cell) deriving from a bacterial subculture after an incubation at 37°C for 120 min in the presence and absence of lactoferrin added at no cytotoxic nor antibacterial concentrations. After the bacterial infection (2 h at 37°C ), the monolayer was five-fold carefully washed with fosfate buffered saline (PBS) and then fresh medium (MEM, Seromed) containing 200 ug/ml of gentamicin was added. This antibiotic is well known for its impossibility to penetrate into the eukaryotic cells and to exert its bactericidal effect only towards the extracellular bacteria (free or adhered to the cells). Alter 2 h incubation period at 37°C in gentamicin, the infected cells were whashed three times with PBS and lysed by the addition of cold 0.1% Triton-X 100.
The cellular lysate was diluited with PBS and plated on selective agar medium in order to determine viable intracellular bacteria.

S. aureus = assay: as above; type: cell-based, Staphylococcus aureus; conditions: proteins 1 mg/ml; erythromycin 0.02 mg/ml where present; control 7 x 10^5
Method: as §1
as §2, with “Alter 2 h incubation period at 37°C in gentamicin, the infected cells were whashed three times with PBS and lysed by the addition of cold 0.1% Triton-X 100.” left out

| SMILES | Internalized bacteria (CFU/ml) (S. pyogenes 95/1; bacteria cultured with subinhibiting antibiotic 0.1 ug/ml) | Intracellular bacteria (CFU/ml S. aureus) (S. aureus) | Internalized bacteria (CFU/ml) (S. pyogenes 95/1; bacteria cultured with subinhibiting antibiotic 20 ug/ml) | Intracellular bacteria (CFU/ml S. pyogenes) (S. pyogenes 95/1; proteins 1 mg/ml, erythromycin 0.02 mg/ml where present) |
| --- | --- | --- | --- | --- |
| CC1(C)S[C@@H]2[C@H](NC(=O)[C@H](N)c3ccccc3)C(=O)N2[C@H]1C(=O)O [Ampicillin, ampicillin] | 2 x 10^5 CFU/ml | – | – | – |
| CC[C@H]1OC(=O)[C@H](C)[C@@H](O[C@H]2C[C@@](C)(OC)[C@@H](O)[C@H](C)O2)[C@H](C)[C@@H](O[C@@H]2O[C@H](C)C[C@H](N(C)C)[C@H]2O)[C@](C)(O)C[C@@H](C)C(=O)[C@H](C)[C@@H](O)[C@]1(C)O [Erythromycin, erythromycin] | – | 3 x 10^5 CFU/ml | 2 x 10^5 CFU/ml | 2 x 10^5 CFU/ml |
